From patent US20260355184A1, “SMALL MOLECULE DEGRADERS OF HIV-1 TAT PROTEIN” (priority 2022, published 2026)
Like-named read-outs stand apart in the source and are kept apart here.

How the values were obtained:
HIV NL4.3 strain = experiment: HIV infectivity assay, reporter cell line HeLa-CD4-LTR-LacZ, β-Gal activity (Tat protein inhibition); format: cell-based, HIV-1 (NL4.3)
Method: (§1) Next, the activity of these leads against HIV infection was evaluated using the reporter cell line HeLa-CD4-LTR-LacZ, which stably expresses the β-galactosidase (β-Gal) gene under the control of the HIV 5′ LTR. The HIV NL4.3 strain was used for these studies and β-Gal activity was measured 72 hrs post infection (FIG. 3A). Cytotoxicity assays using Cell-Titer-Glo were performed in parallel to assess cell viability (FIG. 3A). […] Their anti-HIV activity was further assessed in acute replication of Jurkat T cells with the NL4.3 strain (FIG. 3A). […] These OM10.1 cells contain a single integrated wild-type provirus, while ACH-2 cells contain a single integrated provirus with a TAR mutation C37T, defective Tat-TAR feedback loop (FIG. 3B).

[1] = Cytotoxicity assay, Cell-Titer-Glo, HeLa-CD4-LTR-LacZ; conditions: human, hela-cd4-ltr-lacz cells
Method: as §1

[2] = Infectivity CC50, HeLa-CD4-LTR-LacZ, analogs of TT-44856 (Table 3)
[3] = Human immunodeficiency virus 1, read-out: Infectivity IC50, HeLa-CD4-LTR-LacZ, analogs of TT-44856 (Table 3)
[4] = Human immunodeficiency virus 1, read-out: Infectivity IC50, HeLa-CD4-LTR-LacZ, analogs of TT-44881 (Table 1)
[5] = Infectivity CC50, HeLa-CD4-LTR-LacZ, analogs of TT-44881 (Table 1)

Row | SMILES | CC50 [1, 2] [µM] | IC50 (HIV NL4.3 strain; [3]) [µM] | further results
1 | COc1ccc(C(F)(F)F)cc1NC(=O)C(C)n1cc(C(F)(F)F)cc(-c2ccccc2)c1=O (stereo not drawn) |  |  | IC50 (HIV NL4.3 strain; Human immunodeficiency virus 1, read-out: Infectivity IC50, HeLa-CD4-LTR-LacZ, analogs of TT-44863 (Table 2)): > 100 µM; CC50 ([1]; Infectivity CC50, HeLa-CD4-LTR-LacZ, analogs of TT-44863 (Table 2)): > 100 µM
2 | O=C(NCCCn1ccnc1)c1ccc2ccccc2c1 [3-34] | > 100 |  | 
3 | O=C(NCCCn1ccnc1)C1c2ccccc2-c2ccccc21 [3-35] | > 100 | 50 to 100 | 
4 | O=C(NCCCn1ccnc1)C1(O)c2ccccc2-c2ccccc21 [3-36] |  |  | IC50 (HIV NL4.3 strain; Human immunodeficiency virus 1, read-out: Infectivity IC50): 20 to 50 µM; CC50 [1]: > 100 µM
5 | O=C(NCCCn1ccnc1)c1cc2cccnc2[nH]1 [3-37] | > 100 | > 100 | 
6 | O=C(NCCCn1ccnc1)c1cc(O)c2cc(Cl)ccc2n1 [3-38] | > 100 | > 100 | 
7 | O=C(NCCCn1ccnc1)c1cc(Cl)nc2ccccc12 [3-39] | > 100 | > 100 | 
8 | O=C(NCCCn1ccnc1)c1ccc(-n2cc(Br)cn2)cc1 [3-40] | > 100 | > 100 | 
9 | O=C(NCCCn1ccnc1)c1cc2cc(Cl)ccc2[nH]1 [3-41] | > 100 | > 100 | 
10 | NC(C(=O)NCCCn1ccnc1)(c1ccccc1)c1ccccc1 [3-42] | > 100 | 10 to 30 | 
11 | COc1ccccc1CCNC(=O)C(C)(c1ccccc1)c1ccccc1 [3-43] | 25 to 50 | 20 to 100 | 
12 | CC(C(=O)Nc1cc(OCc2ccccc2)ccn1)(c1ccccc1)c1ccccc1 [3-44] | > 100 | 1 to 30 | 
13 | CC(C(=O)NCCc1ccc(C(F)(F)F)cc1)(c1ccccc1)c1ccccc1 [3-45] | 50 to 100 | 10 to 20 | 
14 | CC(C(=O)NCCc1ccccc1)(c1ccccc1)c1ccccc1 [3-46] | 20 to 50 | 50 to 100 | 
15 | CC(NC(=O)C(C)(c1ccccc1)c1ccccc1)c1ccccc1 (stereo not drawn) [3-47] | > 100 | 10 to 30 | 
16 | COc1ccc(C(C(=O)NCCCn2ccnc2)c2ccccc2)cc1 (stereo not drawn) [3-48] | > 100 | 20 to 50 | 
17 | CCC(C(=O)NCCCn1ccnc1)(c1ccccc1)c1ccccc1 [3-49] | > 100 | 1 to 10 | 
18 | CC1(C(=O)NCCCn2ccnc2)c2ccccc2-c2ccccc21 [3-50] | > 100 | 1 to 20 | 
19 | CN1CCN(CCNC(=O)C(C)(c2ccccc2)c2ccccc2)CC1 [3-51] | > 100 | > 100 | 
20 | Cc1nccn1CCCNC(=O)C(C)(c1ccccc1)c1ccccc1 [3-52] | > 100 | 1 to 10 | 
21 | CC(C)c1nccn1CCCNC(=O)C(C)(c1ccccc1)c1ccccc1 [3-54] | 50 to 100 | 1 to 20 | 

Row | SMILES | CC50 [1, 2] [µM] | IC50 (HIV NL4.3 strain; [3]) [µM] | further results
22 | CC(C(=O)NCCCN1CCNCC1)(c1ccccc1)c1ccccc1 [3-55] | > 100 | > 100 | 
23 | CCc1nccn1CCCNC(=O)C(C)(c1ccccc1)c1ccccc1 [3-56] | > 100 | 10 to 20 | 
24 | CCCC(C(=O)NCCCn1ccnc1)(c1ccccc1)c1ccccc1 [3-57] | > 100 | 1 to 10 | 
25 | O=C(NCCCn1ccnc1)C(c1ccccc1)(c1ccccc1)c1ccccc1 [3-58] | > 100 | 1 to 20 | 
26 | CC(C(=O)NCC1CCCNC1)(c1ccccc1)c1ccccc1 (stereo not drawn) [3-59] | > 100 | 1 to 30 | 
27 | CCCC(=O)NC(C(=O)NCCCn1ccnc1)(c1ccccc1)c1ccccc1 [3-60] | > 100 | > 100 | 
28 | O=C(NCCCn1ccnc1)C1c2ccccc2Oc2ccccc21 [3-61] | > 100 | > 100 | 
29 | CCCC(=O)NCc1cn(CCCNC(=O)C(C)(c2ccccc2)c2ccccc2)cn1 [3-62] | > 100 | > 100 | 
30 | O=C(NCCCn1ccnc1)c1nn(-c2ccccc2)c2c1CCC2 [3-63] | 1 to 10 | 1 to 10 | 
31 | CC(C(=O)NCCCn1cnc(CNC(=O)OCc2ccccc2)c1)(c1ccccc1)c1ccccc1 [3-64] | 20 to 50 | 10 to 30 | 
32 | CCCC(C(=O)NCCCn1ccnc1C)(c1ccccc1)c1ccccc1 [3-65] | 50 to 100 | 1 to 10 | 
33 | CCCC(C(=O)NCCCn1c(C)nc2ccccc21)(c1ccccc1)c1ccccc1 [3-66] | 20 to 50 | 20 to 50 | 
34 | Cc1nccn1CCCNC(=O)C(c1ccccc1)(c1ccccc1)c1ccccc1 [3-67] | 50 to 100 | 1 to 20 | 
35 | O=C(NCCCn1cnc2ccccc21)C(c1ccccc1)(c1ccccc1)c1ccccc1 [3-68] | 20 to 50 | 10 to 30 | 
36 | CCC(C(=O)NCCCn1ccnc1C)(c1ccccc1)c1ccccc1 [3-69] | > 100 | 1 to 10 | 
37 | CCC(C(=O)NCCCn1cnc2ccccc21)(c1ccccc1)c1ccccc1 [3-70] | 50 to 100 | 20 to 50 | 
38 | CCC(C(=O)NCCCn1ccnc1)c1ccccc1 (stereo not drawn) [3-72] | > 100 | > 100 | 
39 | O=C1N(CCCn2ccnc2)CCC1(c1ccccc1)c1ccccc1 [3-73] | > 100 | 10 to 50 | 
40 | O=C(NCCCn1ccnc1)C(CCO)(c1ccccc1)c1ccccc1 [3-74] | > 100 | 1 to 20 | 
41 | CCCCOCCC(C(=O)NCCCn1ccnc1)(c1ccccc1)c1ccccc1 [3-75] | > 100 | 50 to 100 | 
42 | CC(C(=O)NCCCc1cccnc1)(c1ccccc1)c1ccccc1 [3-76] | 10 to 30 | 1 to 30 | 

Row | SMILES | CC50 [1, 2] [µM] | IC50 (HIV NL4.3 strain; [3]) [µM] | further results
43 | O=C(NCCCN1CCCC1=O)c1nn(-c2ccccc2)c2c1CCCCC2 [GB-03] |  |  | IC50 (HIV NL4.3 strain; [4]): > 100 µM; CC50 [1, 5]: > 100 µM
44 | CCN(CCCN1CCCC1=O)C(=O)c1nn(-c2ccccc2)c2c1CCC2 [GB-05] |  |  | IC50 (HIV NL4.3 strain; [4]): > 100 µM; CC50 [1, 5]: > 100 µM
45 | CCCN(CCCN1CCCC1=O)C(=O)c1nn(-c2ccccc2)c2c1CCC2 [GB-06] |  |  | IC50 (HIV NL4.3 strain; [4]): 5 to 30 µM; CC50 [1, 5]: > 100 µM
46 | CCCCN(CCCN1CCCC1=O)C(=O)c1nn(-c2ccccc2)c2c1CCC2 [GB-07] |  |  | IC50 (HIV NL4.3 strain; [4]): 50 to 100 µM; CC50 [1, 5]: 50 to 100 µM
47 | CC(C)N(CCCN1CCCC1=O)C(=O)c1nn(-c2ccccc2)c2c1CCC2 [GB-08] |  |  | IC50 (HIV NL4.3 strain; [4]): 30 to 50 µM; CC50 [1, 5]: > 100 µM
48 | O=C1CCCN1CCCN(Cc1ccccc1)C(=O)c1nn(-c2ccccc2)c2c1CCC2 [GB-09] |  |  | IC50 (HIV NL4.3 strain; [4]): 25 to 50 µM; CC50 [1, 5]: 25 to 50 µM
49 | O=C(NCCCN1CCCC1=O)c1nn(-c2ccccc2)c2c1CCC1(C2)OCCO1 [GB-10] |  |  | IC50 (HIV NL4.3 strain; [4]): > 100 µM; CC50 [1, 5]: > 100 µM
50 | O=C1CCc2c(C(=O)NCCCN3CCCC3=O)nn(-c3ccccc3)c2C1 [GB-11] |  |  | IC50 (HIV NL4.3 strain; [4]): 10 to 20 µM; CC50 [1, 5]: > 100 µM
51 | O=C(NCCCN1CCCC1=O)c1nn(-c2ccccc2)c2c1CCC(O)C2 (stereo not drawn) [GB-12] |  |  | IC50 (HIV NL4.3 strain; [4]): 1 to 10 µM; CC50 [1, 5]: > 100 µM
52 | CCc1cc(C(=O)NCCCN2CCCC2=O)nn1-c1ccccc1 [GB-13] |  |  | IC50 (HIV NL4.3 strain; [4]): 10 to 20 µM; CC50 [1, 5]: > 100 µM
53 | O=C(Cc1c(Cl)cccc1Cl)NCCCn1ccnc1 [Z30217435] |  | > 100 | 
54 | O=C(Cc1cccc(C(F)(F)F)c1)NCCCn1ccnc1 [Z30217436] |  | > 100 | 
55 | O=C(CC(c1ccccc1)c1ccccc1)NCCCn1ccnc1 [Z30217483] |  | > 100 | 
56 | CNc1ccccc1CC(=O)NCCCn1ccnc1 [Z31794405] |  | > 100 | 
57 | O=C(Cc1ccc2ccccc2c1)NCCCn1ccnc1 [Z31795124] |  | > 100 | 
58 | O=C(Cc1cccc2ccccc12)NCCCn1ccnc1 [Z31795406] |  | > 100 | 
59 | O=C(NCCCn1ccnc1)c1ccc2ccccc2c1 [Z31795639] |  | > 100 | 
60 | O=C(NCCCn1ccnc1)c1ccc(-c2ccccc2)cc1 [Z31795699] |  | > 100 | 
61 | O=C(Cc1ccc(F)cc1)NCCCn1ccnc1 [Z31795779] |  | > 100 | 
62 | O=C(Cc1ccccc1F)NCCCn1ccnc1 [Z31795827] |  | > 100 | 
63 | COc1cccc(CC(=O)NCCCn2ccnc2)c1 [Z31796092] |  | > 100 | 

Row | SMILES | CC50 [1, 2] [µM] | IC50 (HIV NL4.3 strain; [3]) [µM] | further results
64 | O=C(Cc1cccc(F)c1)NCCCn1ccnc1 [Z31796183] |  | > 100 | 
65 | O=C(Cc1ccccc1Cl)NCCCn1ccnc1 [Z31796195] |  | > 100 | 
66 | O=C(Cc1ccc2c(c1)CCC2)NCCCn1ccnc1 [Z51979499] |  | > 100 | 
67 | O=C(COC(c1ccccc1)c1ccccc1)NCCCn1ccnc1 [Z51979572] |  | > 100 | 
68 | Cc1ccccc1CC(=O)NCCCn1ccnc1 [Z51979592] |  | > 100 | 
69 | O=C(NCCCn1ccnc1)c1ccc(Oc2ccccc2)cc1 [Z56813845] |  | > 100 | 
70 | Cc1ccc(CC(=O)NCCCn2ccnc2)cc1 [Z100612606] |  | > 100 | 
71 | CC(CNC(=O)CCn1cnc2ccccc21)(c1ccccc1)c1ccccc1 [Z119886832] |  | > 100 | 
72 | Cc1ccc(CCC(=O)NCCCn2ccnc2)cc1 [Z196426172] |  | > 100 | 
73 | CC(CNC(=O)CCn1cncn1)(c1ccccc1)c1ccccc1 [Z221503086] |  | > 100 | 
74 | O=C(Cc1ccc(C(F)(F)F)cc1)NCCCn1ccnc1 [Z236749082] |  | > 100 | 
75 | O=C(NCCCn1ccnc1)N(Cc1ccccc1)Cc1ccccc1 [Z991981670] |  | > 100 | 
76 | CC(C(=O)NCCCn1ccnc1)c1c(Cl)cccc1Cl (stereo not drawn) [Z1004969394] |  | > 100 | 
77 | CC(C)(C(=O)NCCCn1ccnc1)c1cccc(C(F)(F)F)c1 [Z1053536312] |  | > 100 | 
78 | Cc1nccn1CCCNC(=O)C(C)(C)c1ccccc1Cl [Z1119105307] |  | > 100 | 
79 | CCC(=O)NC(C(=O)NCCCn1ccnc1)c1ccccc1 (stereo not drawn) [Z1207330250] |  | > 100 | 
80 | CC(CNC(=O)Cc1c(F)cccc1Cl)Cn1ccnc1 (stereo not drawn) [Z1250741002] |  | > 100 | 
81 | CC(C)(C(=O)NCCCn1ccnc1)c1cccc(C(F)(F)F)c1 [compound 46606] | > 100 |  | 
